Experimental data reported in PubChem BioAssay (NCI).
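Protocol summary: plate cells (96-well), add compound at 5 concentrations, incubate 48 h, interpolate endpoints linearly. TGI: concentration producing complete growth inhibition.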

What was measured:
Test in all cases: NCI-60 cell line screen, 48 h
[1] = system: MDA-MB-231 breast
[2] = system: HCT-116 colon
[3] = system: SN12C renal
[4] = system: NCI-H226 lung
[5] = system: MCF7 breast
[6] = system: UO-31 renal
[7] = system: CAKI-1 renal
[8] = system: UACC-257 melanoma
[9] = system: ACHN renal
[10] = system: CCRF-CEM leukemia
[11] = system: HS 578T breast
[12] = system: MALME-3M melanoma
[13] = system: M14 melanoma
[14] = system: MDA-MB-435
[15] = system: RXF 393 renal
[16] = system: HCT-15 colon
[17] = system: DU-145 prostate
[18] = system: OVCAR-3 ovarian
[19] = system: LOX IMVI melanoma
[20] = system: U251 CNS
[21] = system: OVCAR-5 ovarian
[22] = system: UACC-62 melanoma
[23] = system: IGROV1 ovarian
[24] = system: SR leukemia
[25] = system: RPMI-8226 leukemia
[26] = system: A549 NSCLC
[27] = system: MDA-N
[28] = system: SF-295 CNS
[29] = system: NCI-H522 lung
[30] = system: HT29 colon
[31] = system: SNB-75 CNS
[32] = system: MOLT-4 leukemia
[33] = system: A498 renal
[34] = system: SNB-19 CNS
[35] = system: 786-0 renal
[36] = system: HOP-62 NSCLC
[37] = system: T-47D breast
[38] = system: HOP-92 NSCLC
[39] = system: TK-10 renal
[40] = system: NCI/ADR-RES ovarian
[41] = system: K-562 leukemia
[42] = system: SF-268 CNS
[43] = system: BT-549 breast
[44] = system: SK-MEL-28 melanoma
[45] = system: OVCAR-8 ovarian
[46] = system: SF-539 CNS
[47] = system: SK-MEL-5 melanoma
[48] = system: SK-MEL-2 melanoma
[49] = system: OVCAR-4 ovarian
[50] = system: SK-OV-3 ovarian
[51] = system: EKVX NSCLC
[52] = system: PC-3 prostate
[53] = system: COLO 205 colon
[54] = system: HL-60(TB) leukemia
[55] = system: NCI-H23 lung
[56] = system: SW-620 colon
[57] = system: NCI-H460 lung
[58] = system: HCC-2998 colon
[59] = system: KM12 colon

Measured: TGI

COc1cc(N=CN(C)C)c2ncccc2c1
47 µM: [41]
19.3 µM: [24]
56 µM: [27]
not listed: [56] | [57] | [58] | [59]
> 100 µM: all other assays above

CCOC(=O)c1ccc(Nc2nc3cc(C(F)(F)F)ccc3nc2-c2ccccc2)cc1
> 10 µM: [30] | [32] | [39]
69.2 µM: [52]
98 µM: [15]
39.4 µM: [31]
61.7 µM: [36]
47.5 µM: [9]
60.6 µM: [28]
91.6 µM: [37]
44.8 µM: [35]
84.2 µM: [11]
49.5 µM: [20]
89.5 µM: [58]
29.4 µM: [22]
not listed: [13] | [33] | [38] | [48] | [49] | [50]
> 100 µM: all other assays above

COc1ccc(N(C)S(=O)(=O)c2ccccc2)cc1
not listed: [33] | [38]
> 100 µM: all other assays above

Cn1c2ccccc2c(=S)c2ccccc21
not listed: [12] | [49] | [54]
> 100 µM: all other assays above
